Measurements from patent US9765061B2, “Trail enhancers for the selective killing of cancer cells” (The Scripps Research Institute, priority 2013, dated 2017).

Tests used:
A549 cell line = assay: Viability of A549 cells, XTT-based assay, with or without TRAIL; format: cell-based, human
Method: FIG. 4: C12 sensitizes long cancer cell line A549 to TRAIL. (A) Viability of cells was examined after 24-hour incubation in media containing TRAIL (50 ng/ml), compound (C12) (1 μM), compound (C12R) (25 μM) or the indicated combination of TRAIL (T) with (C12) or (C12R). The chemical structures of (C12) and its stereoisomer (C12R) are shown on the right. (B) Viability of cells was examined after 24-hour incubation in media, containing TRAIL (50 ng/ml) and the indicated doses of C12. Viable cells remaining after the treatment were determined as a function of mitochondrial activity of living cells according to XTT-based toxicology assay kit (Sigma) and are shown as a percentage of viable untreated cells.
To test this hypothesis, we examined the effect of C12 in vitro on the activity of TRAIL against A549 cell line derived from a cancer sample of the human lung.
(§1) Cytotoxicity was determined by using the XTT-based toxicology assay kit (Sigma, St. Louis, Miss.) in accordance with the manufacturer's instructions. For some experiments, to confirm the apoptotic nature of toxicity, cells were analyzed using protocols and instructions of the Annexin V-FITC apoptosis detection kit (Biovision, Mountain View, Calif.). In addition, caspase 3, 8 and 9 activities were determined by colorimetric assays (R&D System), and the data are expressed as fold increases compared to the values of untreated or control-treated cells (n=5).

sXBP1 (UPR) = assay: RT-PCR assay of spliced XBP1 mRNA (sXBP1) in macrophages; format: cell-based, mouse; settings: FIG. 1D and 1E
From the text: FIG. 1: C12 induces the UPR in mammalian cells. (A and B). Comparison of the macrophage responsiveness to P. aeruginosa (P.a.), S. typhimurium (S.t), and S. aureus (S.a.). RT-PCR assay of XBP1 (A) and Western blot analysis (B) of p38, its phosphorylated form (p-p38) as well as phosphorylated forms of PERK (p-PERK) and eIF2α (p-eIF2α) in cell extracts after treatment with bacteria are shown. (C) Macrophages were stimulated with P. aeruginosa wild type (wt) or lasI mutant (ΔlasI), and cell extracts (total RNA or total protein) were prepared and analyzed as in (A and B). […] (F) Total RNA was prepared from lung of mice after inoculation of vehicle (-) or (C12) and analyzed in (D). […]
Among key biochemical signatures of the multicomponent ER stress pathway, known as the unfolded protein response (UPR), are the phosphorylation of the α-subunit of eukaryotic translation initiation factor-2 (eIF2α) and activation of the transcription factor XBP1/Hac1 (X-box binding protein-1 in metazoans and homologous to ATF/CREB in yeast, respectively) ^11. […] To initiate our studies, we exposed bone marrow-derived macrophages (BMDM) to these bacteria, and macrophage responsiveness was analyzed for biochemical markers of the UPR and the phosphorylation of the mitogen-activated protein kinase p38, as a common marker of TLR pathways. […]

cancerous cells = assay: Sensitization of cancerous cells to TRAIL-mediated apoptosis (SAR panel); format: cell-based; settings: a number of cancerous cells
From the text: Since (C12) is a prototypic member of the 3-oxo-AHL family, the structure-activity-relation (SAR) investigations were warranted to determine generic structural features of AHL, which are required for a cancer-stop and cancer preventing activity as well as for activation of the UPR. To address this questions, a set of AHLs and their analogs were synthesized (see List of AHLs and analogs), and the biological activity of ail compounds were examined on a panel of cancerous and normal cells. The prototypic examples of biochemical data for the selected analogs are shown in FIG. 9 and FIG. 10, whereas Table 2 summarizes the SAR studies for all compounds.
(§2) Cell stimulation. In all experiments, BMDM were stimulated with LPS (100 ng/ml), AHL (10-25 μM; usually BMDM and primary macrophages were stimulated by 25 μM of C12) or their combination as indicated in the figure legends. If not indicated, cancer and normal cells were stimulated with 40 ng/ml of TNFα, 20 ng/ml TRAIL and 10 μM (in case of cancer cells) or 25 μM (in case of normal cells) of AHL.

[1] = system: primary human hepatocytes; assay: Viability and apoptosis of primary human hepatocytes from normal donors; format: cell-based
Method: FIG. 8: Safety and pro-apoptotic. activity of (C12). Cells were incubated with TRAIL, (C12), […] (Bor) or a combination of TRAIL and (C12) or Bor as indicated, and cell viability (top panels) or the cleavage of PARP (bottom panels) was determined. (A) Lung cancer cell line A549. (B) Primary human hepatocytes from normal donor.
Therefore, to assess a potential utility of C12 for anti-cancer therapy, we compared the effects of these two compounds—(C12) and bartezomid (Bor)—on TRAIL-mediated apoptosis in cancerous A549 cells and primary human hepatocytes.
Cancer and normal cell culture. Lung cancer cell line A549 and colon cancer cell line HT29 were purchased from ATCC. Breast cancer cell line MDA-MB-468 was received from J. C. Reed (The Burnham Institute, La Jolla, Calif.). Cell lines were maintained in growth medium (GM): DMEM medium (4.5 g/l glucose) supplemented with 10% FBS (HyClone, Logan, Utah), L-glutamine, penicillin/streptomycin and nonessential ammo acids (Invitrogen, Carlsbad, Calif.). Normal human bronchial epithelial (NHBE) cells and normal human mammary epithelial (NHME) cells were obtained from Cambrex (East Rutherford, N.J.) and cultured as recommended by the manufacturer. Normal human colon smooth muscle cells were obtained from ScienCell Research Lab (San Diego, Calif.) and cultured as recommended by the manufacturer. Primary cultures of human hepatocytes (freshly plated; not cryopreserved) and culture medium were obtained from Celsis In Vitro Technologies (Baltimore, Md.). Upon receipt of the cells, the medium was gently aspirated from each well and replenished with InVitroGRO HI medium supplemented with Torpedo Antibiotic Mix (Celsis), and the plates were kept in a 5% CO2, at 37° C. in an incubator at saturating humidity. After 2-4 h, cells were stimulated as described in the text and FIG. legends.
as §1

cancer and normal cells = assay: XTT-based viability of cancer and normal cells grown 18 h (FIG. 12); format: cell-based; settings: TRAIL alone or the same doses of C12 without TRAIL
Method: FIG. 12. (C12) promotes the TRAIL-mediated killing of cancer cells, a), c) Western blot analysis of PARP cleavage in cancer or normal cells treated for 3 h with TRAIL, (C12) or a combination of both, as indicated, b), d) XTT-based assay monitoring the viability of cancer and normal cells grown for 18 h in media containing TRAIL and the indicated doses of (C12). Cell survival was ˜100% in control samples (untreated cells) as well as in samples incubated with TRAIL alone or the same doses of (C12) without TRAIL.
Cancer and normal cell culture. Lung cancer cell line A549 and colon cancer cell line HT29 were purchased from ATCC. Breast cancer cell line MDA-MB-468 was received from J. C. Reed (The Burnham Institute, La Jolla, Calif.). […]
as §1

[2] = system: bone marrow-derived macrophages (BMDM); assay: Responses of bone marrow-derived macrophages to AHLs (toxicity, Western blot); format: cell-based, mouse
Method: FIG. 13. AHL-mediated inhibition of inflammation-induced NF-κB signaling is sufficient for rendering tumors susceptible to TRAIL-induced apoptosis. a) Western blot analysis of PARP cleavage in cancer cells stimulated for 3 h with TRAIL or its combination with different AHLs as indicated, b) Western blot analysis of PARP cleavage as well as phosphorylated forms of eIF2α and p38 in extracts from bone marrow-derived macrophages (BMDM) stimulated with (C12) or (3-N2), i.e., (S)-(3-N2), as indicated, c) Western blot analysis of PARP cleavage and temporal profiles of IκBα expression in BMDM extracts prepared after treatment with LPS or its combination with (C12) or (3-N2). d) Inhibitory effect of (C12) and its derivatives on LPS-induced TNF production in BMDM. e) Lung cancer cells were exposed to (3-N2) (10 μM), TRAIL (0.5 ng/ml), TNF (20 ng/ml) or their combinations as indicated. After 2 h, cell lysates were prepared and analyzed by Western blot for PARP cleavage, IκBα and actin.
Mice, bone marrow-derived macrophages and other cell culture, C57BL/6 mice were purchased from the Jackson Laboratory (Bar Harbor, Me.). Bone marrow-derived macrophages (BMDM) and murine embryonic fibroblasts (MEF) were prepared by using standard protocols that were approved by the TSRI Animal Care and Use Committee. L929/NCTC clone 929 (connective tissue, mouse) cell lines were purchased from ATCC (Manassas, Va.). MEFs and L929 cell line were maintained in GM (see above). BMDM were cultured in 70% GM and 30% L929 conditioned medium. In general, cells (˜60-70% confluence) were incubated in fresh medium for 12-14 h before stimulation.
Antibodies and Western blot analysis. Anti-eIF2α, phospho-eIF2α[…](p-eIF2α), p38, p-p38 (Thr180/Tyr132), p-RelA (Ser536), p-I κB ? 32/36), PARP 20 antibodies were purchased from Cell Signaling; anti-RelA, I κB α, IκBβ were from Santa Cruz Biotechnology. Cellular extracts were prepared and analyzed by Western blot assay as previously described.^E3
as §2

[3] = system: TRAIL-treated lung cancer cells; assay: Toxicity against TRAIL-treated lung cancer cells; format: cell-based
Method: Considering the potential inherent pharmacokinetic liabilities associated with C12, a small series of compound (C12) analogues was tested against bone marrow-derived macrophages and TRAIL-treated lung cancer cells.
Cancer and normal cell culture. Lung cancer cell line A549 and colon cancer cell line HT29 were purchased from ATCC. Breast cancer cell line MDA-MB-468 was received from J. C. Reed (The Burnham Institute, La Jolla, Calif.). Cell lines were maintained in growth medium (GM): DMEM medium (4.5 g/l glucose) supplemented with 10% FBS (HyClone, Logan, Utah), L-glutamine, penicillin/streptomycin and nonessential ammo acids (Invitrogen, Carlsbad, Calif.). […]
as §1

## CCCCCCCCCC(=O)CC(=O)N[C@@H]1CCOC1=O [Compound 2]
A549 cell line; C12 1 μM or 25 μM, C12R 25 μM, no TRAIL
  cell growth and viability, compound alone: practically unchanged
A549 cell line; TRAIL (50 ng/ml) and C12R (25 μM)
  cell growth and viability, combination with TRAIL: practically unchanged
sXBP1 (UPR)
  induction of sXBP1 / activation of the UPR: ineffective

## [N-]=[N+]=NCCCCCCCCCC(=O)CC(=O)N[C@H]1CCOC1=O [Compound 13]
Cancerous cells
  sensitization of cancerous cells to TRAIL-mediated apoptosis: strongly sensitize

## [N-]=[N+]=NCCCCCCCCCC1(CC(=O)N[C@H]2CCOC2=O)N=N1 [Compound 16]
Cancerous cells
  sensitization of cancerous cells to TRAIL-mediated apoptosis: strongly sensitize

## CC(C)C[C@H](NC(=O)[C@H](Cc1ccccc1)NC(=O)c1cnccn1)B(O)O [Bor, bortezomib, reference compound]
[1]; FIG. 8B
  toxicity and apoptosis in hepatocytes in the presence of TRAIL: substantially enhanced
  toxicity toward hepatocytes, drug alone: relatively low levels of toxicity
A549 cell line; FIG. 8A
  sensitivity of A549 cells to TRAIL in the presence of compound: comparable increase in sensitivity

## TRAIL: recombinant human tumor necrosis factor-related apoptosis-inducing ligand, purchased from R&D System
[1]; FIG. 8B
  viability of normal human hepatocytes, TRAIL alone: unchanged
Cancer and normal cells
  Cell survival: ~100%
A549 cell line; TRAIL 50 ng/ml
  viability and growth, TRAIL alone: did not significantly affect

## CCCCCCCCCC1(CC(=O)N[C@H]2CCOC2=O)N=N1 [Compound 15]
[1]; hepatocytes from normal donors
  toxicity to human hepatocytes, compound alone or in combination with TRAIL: non-toxic
Cancerous cells
  sensitization of cancerous cells to TRAIL-mediated apoptosis: strongly sensitize
[2]; Western blot, FIG. 13b
  PARP cleavage in macrophages: did not induce
  eIF2α phosphorylation in macrophages: induced eIF2α phosphorylation in a similar fashion
  p38 phosphorylation in macrophages: did not induce
[2]; bone marrow-derived macrophages
  toxicity to macrophages: nontoxic
[2]; macrophages activated by LPS, FIG. 13c
  blocking LPS-induced re-synthesis of IκBα: equally effective
[3]; compared with bortezomib
  synergistic effects on TRAIL-induced apoptosis in cancer cells: comparable with those for an anti-cancer agent bortezomib
[3]; in the presence of TRAIL
  toxicity against TRAIL-treated cancer cells: exhibited toxicity
